Consider two compounds from article PMC10779311, “Antileishmanial Activity, Toxicity and Mechanism of Action of Complexes of Sodium Usnate with Lanthanide Ions: Eu(III), Sm(III), Gd(III), Nd(III), La(III) and Tb(III)” (International Journal of Molecular Sciences, 2023).

One assay has as its system NIH/3T3 fibroblasts. Briefly: Cytotoxicity in mammalian cells (sulforhodamine B). It counts as cell-based. The note with it: 48 h, read-out: Fibroblasts NIH/3T3 (Fib.) IC50. As for the experimental part:
The cytotoxic effect of compounds 1–7 was evaluated on NIH/3T3 fibroblasts obtained from the Rio de Janeiro Cell Bank (Duque de Caxias, Brazil). Fibroblasts were seeded at […] in 96-well plates. After 24 h of fixation, cells were incubated for 48 h with 1–7 at 2.5–250 µg·mL^−1, in three replicates. Cell growth was evaluated using the sulforhodamine B colorimetric method, and the optical with absorbances read on the PT-READER microplate instrument (Spectramax 190, Molecular Devices, Sunnyvale, CA, USA) at 540 nm. […] The growth inhibition percentage-GI (%) of each test sample was calculated in Microsoft Office Excel 2007 software. IC50 was determined graphically in the Microcal Origin Version 6.00 program. The selectivity index (SI) was calculated as the ratio between the cytotoxicity on cells (IC50) and the activity on the parasite forms (IC50).

The test system of assay [1] is L. (L.) amazonensis intracellular amastigotes. Briefly: In vitro antileishmanial activity on intracellular amastigotes in peritoneal macrophages. It counts as cell-based, Leishmania (Leishmania) amazonensis. As for the experimental part:
Peritoneal macrophages were obtained from BALB/c mice in RPMI 1640 culture medium (Sigma-Aldrich® São Paulo, Brazil). After exclusion of inviable cells with trypan blue staining (Sigma-Aldrich® São Paulo, Brazil), cells were transferred to 24-well plates with 13 mm round glass coverslips (10^6 cells/well) and kept at 37 °C/5% CO2. After adhesion for one hour, cells were infected with promastigote forms of L. (L.) amazonensis in the stationary phase (4 × 10^6 cells/well). After 4 h of incubation, samples (complexes 1–7) were added in six replicates (6.25–50.0 µg·mL^−1). […] Coverslips were removed after 24 h, subjected to a dehydration battery with increasing concentrations of acetone: xylol and stained with Giemsa (Sigma-Aldrich®, São Paulo, Brazil) diluted 1:10 in distilled water. After mounting on slides, 200 cells per coverslip were analyzed by light microscopy and the average number of amastigotes/cells was calculated. IC50 was determined using a non-linear dose–response regression curve as described above. The concentrations of complexes were compared by Two-way ANOVA followed by the Tukey test.

The subject of assay [2] is L. (L.) amazonensis-infected macrophages. The experiment in a line: NO production by infected cells (Griess reaction). It counts as cell-based, BALB/c mice. The note with it: 24 h after treatment, lowest concentration 6.25 µg·mL^−1. As for the experimental part: Nitric oxide (NO) production by infected and treated peritoneal macrophages was estimated in the supernatants from the intracellular amastigotes assay by the Griess reaction. Aliquots of the supernatants ([…]) were incubated with Griess reagent (1:1) for 10 min at room temperature. Absorbance was read on a microplate reader (HumanReader HS, Wiesbaden, Germany) at 550 nm. Conversion of nitrite (NO^−2) to micromolar (µM) was performed by comparing the samples to a standard curve obtained with known concentrations (1–10 µM) of sodium nitrite diluted in RPMI 1640 medium (Sigma-Aldrich® São Paulo, Brazil). The average and standard error of the mean (SEM) were calculated from three replicates. The data were analyzed using ANOVA and subsequently subjected to the Bonferroni test.
A general note: Griess reagent forms a coloured azo dye with nitrite.

Assay [3] deals with L. (L.) amazonensis promastigote forms. Briefly: Flow cytometry for mitochondrial membrane potential (TMRE). The assay is classed as cell-based, Leishmania (Leishmania) amazonensis. A general note: In flow cytometry, cells or beads pass a laser one at a time.
Assay [4] shares this test system. The experiment in a line: Flow cytometry for apoptosis and membrane permeability (PE Annexin V / 7-AAD). To be noted: treatment at IC50. It counts as cell-based, Leishmania (Leishmania) amazonensis. The text has this: PE Annexin V staining precedes the loss of membrane integrity observed in the final stages of cell death, resulting from either apoptotic or necrotic processes. PE Annexin V is used in conjunction with the vital dye 7-Amino-Actinomycin (7-AAD) to identify early apoptotic cells (7-AAD negative, PE Annexin V positive). Viable cells with intact membranes exclude 7-AAD, but the membranes of dead and damaged cells are permeable to 7-AAD. Cells that are in late apoptosis or already dead are both PE Annexin V and 7-AAD positive. […] Heat-killed parasites (60 °C bath/10 min) were used as positive control, and untreated parasites were used as negative control. Promastigotes were stained with 5 µL of PE Annexin V and 5 µL 7-AAD (PE Annexin V Apoptosis Detection Kit I, BD Biosciences^TM, Franklin Lakes, NJ, USA) and immediately subjected to flow cytometric analysis (BD FACSCanto^TM II). Then, 10,000 events were captured in the region previously determined to correspond to the parasites. Fluorescence was quantified and histograms were generated.

For assay [5] the test system is unchanged. Briefly: In vitro antileishmanial activity on promastigote forms (MTT). It counts as cell-based, Leishmania (Leishmania) amazonensis. The note with it: 72 h, MTT; read-out: L. amazonensis Promastigotes (Pro.) IC50.
Assay [6] deals with promastigotes of L. tropica. More on the design: method as in ref 18 Derici et al. The note with it: ref 18 Derici et al.; cited from earlier work.
For assay [7], the system named is promastigotes of Leishmania major. More on the design: method as in ref 18 Derici et al. To be noted: ref 18 Derici et al.; cited from earlier work.
Assay [8] concerns L. (L.) infantum promastigotes. More on the design: method as in ref 16 Luz et al. The note with it: ref 16 Luz et al.; cited from earlier work.
In assay [9] the test system is promastigotes of L. (L.) infantum. Set-up: method as in ref 18 Derici et al. To be noted: ref 18 Derici et al.; cited from earlier work.
Assay [10] concerns L. (L.) infantum promastigotes. More on the design: method as in ref 16 Luz et al. To be noted: 25 μg·mL^−1; ref 16 Luz et al.; cited from earlier work.
Assay [11] relates to Trypanosoma cruzi epimastigotes. Set-up: method as in ref 45 Carvalho et al. To be noted: 30–50 μg·mL^−1; ref 45 Carvalho et al.; cited from earlier work.

Converted amounts (≈) assume the structure as drawn.

On to `CC(=O)C1=C([O-])C=C2Oc3c(C(C)=O)c(O)c(C)c(O)c3C2(C)C1=O.CC(=O)C1=C([O-])C=C2Oc3c(C(C)=O)c(O)c(C)c(O)c3C2(C)C1=O.CC(=O)C1=C([O-])C=C2Oc3c(C(C)=O)c(O)c(C)c(O)c3C2(C)C1=O.O.O.O.[Eu+3]` (centres unmarked) [EuL3·3H2O 4], for which the IC50 was determined as 20.1 µM in the assay with NIH/3T3 fibroblasts; 2980 nM in [1] (BALB/c peritoneal macrophages, 24 h, Giemsa count, read-out: L. amazonensis Intracellular Amastigotes (Ama.) IC50); 200 nM in [5]. For the same compound, the “IC50 on intracellular amastigotes” value in [1] (converted from µM) was 3.687 µg/mL. For the same compound, the “NO release from infected macrophages” value was “strongest effect” in assay [2] and “triggered NO release” in [2] (listed as EuL3·3H2O). Moreover, the TMRE-labeled promastigotes in assay [3] (48 h after treatment at the calculated IC50) was 79.9%; in assay [3] (72 h after treatment at the calculated IC50), 80.6%. The values for the 7-AAD-stained parasites in [4] (24 h), in [4] (48 h) and in assay [4] (72 h) were 0.5%, 1.0% and 6.0%, respectively. In addition, the “An. (PE Annexin V-stained parasites)” value was 0.6% in assay [4] (24 h), 1.3% in assay [4] (48 h) and 1.9% in [4] (72 h). The “An./7-AAD (double stained parasites)” value in assay [4] (24 h) is recorded as 0.7%; in [4] (48 h) it was 2.3%; in assay [4] (72 h) it was 8.1%. The “Unst. (unstained parasites)” value in assay [4] (24 h) was 98.2%; in assay [4] (48 h) it was 95.4%; in assay [4] (72 h) it was 84.0%.

Consider `CC(=O)c1c(O)c(C)c(O)c2c1OC1=CC(=O)C(C(C)=O)C(=O)C12C` (centres unmarked) [usnic acid, 2,6-diacetyl-7,9-dihydroxy-8,9-dimethyl-1,3(2H,9bH)-dibenzofurandione], for which the “IC50/48 h on promastigotes” value was 21.06 µg/mL (≈ 61.2 µM) in [6], 10.76 µg/mL (≈ 31.3 µM) in assay [7] and 13.34 µg/mL (≈ 38.7 µM) in [9]. Besides, in assay [8], the “IC50/72 h on promastigotes” value was 18.30 µg/mL (≈ 53.1 µM). The “changes in the mitochondrial morphology” value in assay [10] is “marked swelling”. The “damage to the mitochondria” value in assay [11] was “marked swelling and branching”.
